Laboratory results reported in US10202361B2, “Pyridazinones as herbicides” (E I DU PONT DE NEMOURS AND COMPANY, priority 2014, dated 2019).
Like-named read-outs stand apart in the source and are kept apart here.

Columns and labels:
Format in all cases: in vivo
[1] = tested on: corn (Zea mays); test: Test A pre-/postemergence greenhouse herbicide test; details: Zea mays, 240 h, 0 to 100 scale (0 no effect, 100 complete control), approx. 10 d; for Corn plant response rating (crop injury, 0 = no effect, 100 = complete kill) at 125 g/ha: 125 g ai/ha; for Corn plant response rating (crop injury, 0 = no effect, 100 = complete kill) at 500 g/ha: 500 g ai/ha
Outline: (§1)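 Seeds sown in loam–sand blend received a directed preemergence soil spray; postemergence spray was applied at the same time to plants 2–10 cm tall at one- to two-leaf stage. Compounds were in non-phytotoxic solvent with surfactant. Visual injury versus untreated controls after ~10 d in greenhouse, 0–100 scale (100 = complete control).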

[2] = tested on: morningglory (Ipomoea spp.); test: as above; details: Ipomoea, 240 h, 0 to 100 scale (0 no effect, 100 complete control), approx. 10 d, read-out: Plant response rating, Morningglory; for pest or weed control at 125 g/ha: 125 g ai/ha; for pest or weed control at 500 g/ha: 500 g ai/ha
Outline: as §1

[3] = tested on: pigweed (Amaranthus retroflexus); test: as above; details: Amaranthus retroflexus, 240 h, 0 to 100 scale (0 no effect, 100 complete control), approx. 10 d, read-out: Plant response rating, Pigweed; for pest or weed control at 125 g/ha: 125 g ai/ha; for pest or weed control at 500 g/ha: 500 g ai/ha
Outline: as §1

[4] = tested on: foxtail, giant (giant foxtail, Setaria faberii); test: as above; details: Setaria faberi, 240 h, 0 to 100 scale (0 no effect, 100 complete control), approx. 10 d, read-out: Plant response rating, Foxtail, Giant; for pest or weed control at 125 g/ha: 125 g ai/ha; for pest or weed control at 500 g/ha: 500 g ai/ha
Outline: as §1

[5] = tested on: crabgrass, Large (large crabgrass, Digitaria sanguinalis); test: as above; details: Digitaria sanguinalis, 240 h, 0 to 100 scale (0 no effect, 100 complete control), approx. 10 d, read-out: Plant response rating, Crabgrass, Large; for pest or weed control at 125 g/ha: 125 g ai/ha; for pest or weed control at 500 g/ha: 500 g ai/ha
Outline: as §1

[6] = tested on: wheat (Triticum aestivum); test: as above; details: Triticum aestivum, 240 h, 0 to 100 scale (0 no effect, 100 complete control), approx. 10 d, read-out: Plant response rating, Wheat; for plant injury at 125 g/ha: 125 g ai/ha; for plant injury at 500 g/ha: 500 g ai/ha
Outline: as §1

[7] = tested on: barnyardgrass (Echinochloa crus-galli); test: as above; details: Echinochloa crus-galli, 240 h, 0 to 100 scale (0 no effect, 100 complete control), approx. 10 d, read-out: Plant response rating, Barnyardgrass; for pest or weed control at 125 g/ha: 125 g ai/ha; for pest or weed control at 500 g/ha: 500 g ai/ha
Outline: as §1

[8] = tested on: velvetleaf (Abutilon theophrasti); test: as above; details: Abutilon theophrasti, 240 h, 0 to 100 scale (0 no effect, 100 complete control), approx. 10 d, read-out: Plant response rating, Velvetleaf; for pest or weed control at 125 g/ha: 125 g ai/ha; for pest or weed control at 500 g/ha: 500 g ai/ha
Outline: as §1

[9] = tested on: chickweed (common chickweed, Stellaria media); test: Test C postemergence greenhouse herbicide test
Source text: At the same time, plants selected from these crop and weed species and also barley (winter barley, Hordeum vulgare), canarygrass (Phalaris minor), windgrass (Apera spica-venti), deadnettle (henbit deadnettle, Lamium amplexicaule), and chickweed (common chickweed, Stellaria media) were planted in pots containing Redi-Earth® planting medium (Scotts Company, 14111 Scottslawn Road, Marysville, Ohio 43041) comprising spaghnum peat moss, vermiculite, wetting agent and starter nutrients and treated with postemergence applications of test chemicals formulated in the same manner. Plants ranged in height from 2 to 18 cm (1- to 4-leaf stage) for postemergence treatments. Treated plants and controls were maintained in a greenhouse for 13 to 15 d, after which time all species were compared to controls and visually evaluated. Plant response ratings, summarized in Table C, are based on a scale of 0 to 100 where 0 is no effect and 100 is complete control. A dash (-) response means no test result.

[10] = tested on: soybean (Glycine max); test: Test C pre-/postemergence greenhouse herbicide test; details: Glycine max, Soybean, read-out: Plant response rating; for plant injury at 62 g/ha: 62 g ai/ha; for plant injury at 125 g/ha: 125 g ai/ha; for plant injury at 250 g/ha: 250 g ai/ha
Outline: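 Seeds sown in loam soil–sand blend were treated preemergence; plants at 2 to 18 cm (1- to 4-leaf stage) in peat-based medium were treated postemergence. Test chemicals were formulated in a non-phytotoxic solvent mixture with surfactant. After 13 to 15 d in greenhouse, injury was rated visually versus controls, 0 (no effect) to 100 (complete control).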

Structure (SMILES): Cc1cc(=O)n(-c2ccc(F)cc2)nc1Oc1ccnc(C(F)(F)F)c1 [Compound 14, 2-(4-fluorophenyl)-5-methyl-6-[[2-(trifluoromethyl)-4-pyridinyl]oxy]-3 (2H)-pyridazinone]
- Corn plant response rating (crop injury, 0 = no effect, 100 = complete kill) at 125 g/ha ([1]; post-emergence, Postemergence): 50%
- Corn plant response rating (crop injury, 0 = no effect, 100 = complete kill) at 500 g/ha ([1]; post-emergence, Postemergence): 70%
- Corn plant response rating (crop injury, 0 = no effect, 100 = complete kill) at 125 g/ha ([1]; pre-emergence, Preemergence): 0%
- Corn plant response rating (crop injury, 0 = no effect, 100 = complete kill) at 500 g/ha ([1]; pre-emergence, Preemergence): 50%
- pest or weed control at 125 g/ha ([2]; post-emergence, Postemergence): 90%
- pest or weed control at 500 g/ha ([2]; post-emergence, Postemergence): 100%
- pest or weed control at 125 g/ha ([2]; pre-emergence, Preemergence): 80%
- pest or weed control at 500 g/ha ([2]; pre-emergence, Preemergence): 100%
- pest or weed control at 125 g/ha ([3]; post-emergence, Postemergence): 100%
- pest or weed control at 500 g/ha ([3]; post-emergence, Postemergence): 100%
- pest or weed control at 125 g/ha ([3]; pre-emergence, Preemergence): 100%
- pest or weed control at 500 g/ha ([3]; pre-emergence, Preemergence): 100%
- pest or weed control at 125 g/ha ([4]; post-emergence, Postemergence): 90%
- pest or weed control at 500 g/ha ([4]; post-emergence, Postemergence): 90%
- pest or weed control at 125 g/ha ([4]; pre-emergence, Preemergence): 90%
- pest or weed control at 500 g/ha ([4]; pre-emergence, Preemergence): 90%
- pest or weed control at 125 g/ha ([5]; post-emergence, Postemergence): 90%
- pest or weed control at 500 g/ha ([5]; post-emergence, Postemergence): 90%
- pest or weed control at 125 g/ha ([5]; pre-emergence, Preemergence): 90%
- pest or weed control at 500 g/ha ([5]; pre-emergence, Preemergence): 90%
- plant injury at 125 g/ha ([6]; post-emergence, Postemergence): 40%
- plant injury at 500 g/ha ([6]; post-emergence, Postemergence): 70%
- plant injury at 125 g/ha ([6]; pre-emergence, Preemergence): 10%
- plant injury at 500 g/ha ([6]; pre-emergence, Preemergence): 60%
- pest or weed control at 125 g/ha ([7]; post-emergence, Postemergence): 80%
- pest or weed control at 500 g/ha ([7]; post-emergence, Postemergence): 90%
- pest or weed control at 125 g/ha ([7]; pre-emergence, Preemergence): 70%
- pest or weed control at 500 g/ha ([7]; pre-emergence, Preemergence): 100%
- pest or weed control at 125 g/ha ([8]; post-emergence, Postemergence): 80%
- pest or weed control at 500 g/ha ([8]; post-emergence, Postemergence): 90%
- pest or weed control at 125 g/ha ([8]; pre-emergence, Preemergence): 30%
- pest or weed control at 500 g/ha ([8]; pre-emergence, Preemergence): 100%
- Plant response rating ([9]; 31 g ai/ha): 35
- Plant response rating ([9]; 62 g ai/ha): 35
- Plant response rating ([9]; 125 g ai/ha): 35
- Plant response rating ([9]; 250 g ai/ha): 55
- plant injury at 31 g/ha ([10]; post-emergence, Postemergence, 31 g ai/ha): 90%
- plant injury at 62 g/ha ([10]; post-emergence, Postemergence): 90%
- plant injury at 125 g/ha ([10]; post-emergence, Postemergence): 95%
- plant injury at 250 g/ha ([10]; post-emergence, Postemergence): 95%
- plant injury at 62 g/ha ([10]; pre-emergence, Preemergence): 40%
- plant injury at 125 g/ha ([10]; pre-emergence, Preemergence): 55%
- plant injury at 250 g/ha ([10]; pre-emergence, Preemergence): 75%

Structure (SMILES): COc1cc(=O)n(-c2ccc(C(F)(F)F)cc2)nc1Cc1ccnc(C(F)(F)F)c1 [Compound 16, 5-methoxy-2-[4-(trifluoromethyl)phenyl]-6-[[2-(trifluoromethyl)-4-pyridinyl]methyl]-3(2H)-pyridazinone]
- Corn plant response rating (crop injury, 0 = no effect, 100 = complete kill) at 125 g/ha ([1]; post-emergence, Postemergence): 20%
- Corn plant response rating (crop injury, 0 = no effect, 100 = complete kill) at 500 g/ha ([1]; post-emergence, Postemergence): 80%
- Corn plant response rating (crop injury, 0 = no effect, 100 = complete kill) at 125 g/ha ([1]; pre-emergence, Preemergence): 40%
- Corn plant response rating (crop injury, 0 = no effect, 100 = complete kill) at 500 g/ha ([1]; pre-emergence, Preemergence): 70%
- pest or weed control at 125 g/ha ([2]; post-emergence, Postemergence): 90%
- pest or weed control at 500 g/ha ([2]; post-emergence, Postemergence): 100%
- pest or weed control at 125 g/ha ([2]; pre-emergence, Preemergence): 80%
- pest or weed control at 500 g/ha ([2]; pre-emergence, Preemergence): 80%
- pest or weed control at 125 g/ha ([3]; post-emergence, Postemergence): 100%
- pest or weed control at 500 g/ha ([3]; post-emergence, Postemergence): 100%
- pest or weed control at 125 g/ha ([3]; pre-emergence, Preemergence): 100%
- pest or weed control at 500 g/ha ([3]; pre-emergence, Preemergence): 100%
- pest or weed control at 125 g/ha ([4]; post-emergence, Postemergence): 90%
- pest or weed control at 500 g/ha ([4]; post-emergence, Postemergence): 90%
- pest or weed control at 125 g/ha ([4]; pre-emergence, Preemergence): 100%
- pest or weed control at 500 g/ha ([4]; pre-emergence, Preemergence): 100%
- pest or weed control at 125 g/ha ([5]; post-emergence, Postemergence): 90%
- pest or weed control at 500 g/ha ([5]; post-emergence, Postemergence): 100%
- pest or weed control at 125 g/ha ([5]; pre-emergence, Preemergence): 100%
- pest or weed control at 500 g/ha ([5]; pre-emergence, Preemergence): 100%
- plant injury at 125 g/ha ([6]; post-emergence, Postemergence): 60%
- plant injury at 500 g/ha ([6]; post-emergence, Postemergence): 70%
- plant injury at 125 g/ha ([6]; pre-emergence, Preemergence): 20%
- plant injury at 500 g/ha ([6]; pre-emergence, Preemergence): 70%
- pest or weed control at 125 g/ha ([7]; post-emergence, Postemergence): 80%
- pest or weed control at 500 g/ha ([7]; post-emergence, Postemergence): 90%
- pest or weed control at 125 g/ha ([7]; pre-emergence, Preemergence): 90%
- pest or weed control at 500 g/ha ([7]; pre-emergence, Preemergence): 100%
- pest or weed control at 125 g/ha ([8]; post-emergence, Postemergence): 80%
- pest or weed control at 500 g/ha ([8]; post-emergence, Postemergence): 100%
- pest or weed control at 125 g/ha ([8]; pre-emergence, Preemergence): 30%
- pest or weed control at 500 g/ha ([8]; pre-emergence, Preemergence): 80%
- Plant response rating ([9]; 31 g ai/ha): 80
- Plant response rating ([9]; 62 g ai/ha): 90
- Plant response rating ([9]; 125 g ai/ha): 90
- Plant response rating ([9]; 250 g ai/ha): 98
- plant injury at 62 g/ha ([10]; post-emergence, Postemergence): 50%
- plant injury at 125 g/ha ([10]; post-emergence, Postemergence): 55%
- plant injury at 250 g/ha ([10]; post-emergence, Postemergence): 65%
- plant injury at 62 g/ha ([10]; pre-emergence, Preemergence): 25%
- plant injury at 125 g/ha ([10]; pre-emergence, Preemergence): 65%
- plant injury at 250 g/ha ([10]; pre-emergence, Preemergence): 75%
